28 molecules from paper PMC8286840, “Identifying SARS-CoV-2 antiviral compounds by screening for small molecule inhibitors of Nsp3 papain-like protease” (Biochemical Journal, 2021) can be followed below.

Structures are written as SMILES. Where a name gives a salt, the structure may show the parent alone. Read-outs that look alike come from different tables or passages of the source.

Test [1] concerns the target T1, SARS-CoV-2 PLpro (nsp3 1564–1878) (Severe acute respiratory syndrome coronavirus 2, UniProt P0DTD1). Kind of test: biochemical. The arrangement: FRET-quenched peptide (Pro3) cleavage by PLpro, 10 min pre-incubation, slope over 20 min, normalised to no-compound control. Particulars: high concentration screen, read-out: % of control remaining.
The target in test [2] is T1, SARS-CoV-2 PLpro (nsp3 1564–1878). Briefly: biochemical. The arrangement: FRET-quenched peptide (Pro3) cleavage by PLpro, 10 min pre-incubation, slope over 20 min, normalised to no-compound control. Particulars: low concentration screen, read-out: % of control remaining.
Procedure: The plates were organized with columns 3–22 containing the compounds; the remaining columns were used for reaction controls including substrate only and substrate with enzyme but no compound (Figure 3Aii). The PLpro enzyme was pre-incubated with the compounds for 10 min, and then the reaction was initiated by the addition of substrate. […] We incubated the inhibitors with PLpro before the enzymatic reaction so that the slow-binding inhibitors will not be missed out [21]. […] Fluorescence was read on a Spark multimode microplate reader (Tecan) with an excitation wavelength at 330 nm and emission wavelength at 420 nm. […] An amount of 5 µl of the enzyme was pre-incubated with compounds for 10 min before the addition of 15 µl substrate. Fluorescence was monitored at 2 min for 20 min with 3 min intervals giving a total of seven readings.

As for `C=C1C=C(C)n2nc(CC3C(=O)C[C@](CCc4cc(CC)nc(CC)c4)(C4CCCC4)OC3=O)nc2N1` (stereo partly drawn) [(6R)-6-cyclopentyl-6-(2-(2,6-diethylpyridin-4-yl)ethyl)-3-((7-methyl-5-methylene-4,5-dihydro-[1,2,4]triazolo[1,5-a]pyrimidin-2-yl)methyl)dihydro-2H-pyran-2,4(3H)-dione], the remaining activity at 3.75 µM in test [1] (Well no.=5607) was determined as 105%. For the same molecule, the remaining activity at 1.25 µM in test [2] (Well no.=5607) amounted to 102%.

For `O=C1c2c(O)cccc2C([C@@H]2O[C@H](CO)[C@@H](O)[C@H](O)[C@H]2O)c2cc(CO)cc(O)c21` (some centres unmarked) [Aloin], the remaining activity at 3.75 µM in test [1] (Well no.=8338) was found to be 97.8%. Further, in test [2] (Well no.=8338), the remaining activity at 1.25 µM was 99.2%.

For the molecule `CC(=O)O[C@H]1C[C@@H]2CC[C@@H]3[C@H](CC[C@@]4(C)[C@H]3C[C@H]([N+]3(C)CCCCC3)[C@@H]4OC(C)=O)[C@@]2(C)C[C@@H]1[N+]1(C)CCCCC1` [Pancuronium bromide], the remaining activity at 3.75 µM in test [1] (Well no.=808) came to 97.8%. Also, the remaining activity at 1.25 µM in test [2] (Well no.=808) worked out at 98.5%.

Turning to `OC[C@H]1OC(O)[C@H](O)[C@@H](O)[C@@H]1O` (some centres unmarked) [Dextrose], the remaining activity at 3.75 µM in test [1] (Well no.=6497) was determined as 99.3%. In test [2] (Well no.=6497), the remaining activity at 1.25 µM came out at 97.3%.

Consider `COc1ccc([C@@H]2CC(=O)c3c(O)cc(O)cc3O2)cc1O` [Hesperetin], for which, in test [1] (Well no.=6630), the remaining activity at 3.75 µM came to 104%. Also, the remaining activity at 1.25 µM in test [2] (Well no.=6630) stood at 103%.

Regarding `C[C@]12C=CC(=O)C=C1CC[C@@H]1C2=CC[C@]2(C)[C@@H](C(=O)CN3CCN(c4cc(N5CCCC5)nc(N5CCCC5)n4)CC3)CC[C@@H]12` [U74389G maleate], the remaining activity at 3.75 µM in test [1] (Well no.=3905) stood at 98.2%. Besides, the remaining activity at 1.25 µM in test [2] (Well no.=3905) turned out to be 103%.

Turning to `OCCN(CCO)c1nc(N2CCCCC2)c2nc(N(CCO)CCO)nc(N3CCCCC3)c2n1` [Dipyridamole], the remaining activity at 3.75 µM amounted to 100% in test [1] (Well no.=682) and 94.7% in test [1] (Well no.=1863). Further, the remaining activity at 1.25 µM in test [2] (Well no.=682) is 103%; in test [2] (Well no.=1863), 95.1%.

On to `COc1ccccc1N1CCN(CCN(C(=O)C2CCCCC2)c2ccccn2)CC1` [WAY-100635 (maleate salt)], for which, in test [1] (Well no.=7000), the remaining activity at 3.75 µM is 99.5%. Besides, in test [2] (Well no.=7000), the remaining activity at 1.25 µM turned out to be 99.7%.

Turning to `CNCCNS(=O)(=O)c1cccc2cnccc12` [H-8 dihydrochloride], in test [1] (Well no.=893), the remaining activity at 3.75 µM was 99.3%. The remaining activity at 1.25 µM in test [2] (Well no.=893) was found to be 103%.

Regarding `COc1ccc(CC(=O)O)cc1` [2-(4-Methoxyphenyl)acetic acid], the remaining activity at 3.75 µM in test [1] (Well no.=6451) was 104%. For the same molecule, the remaining activity at 1.25 µM in test [2] (Well no.=6451) was 100%.

On to `CCCN1CCc2cc(O)cc3c2[C@H]1Cc1ccc(O)c(O)c1-3` [R(-)-2,10,11-Trihydroxy-N-propylnoraporphine hydrobromide], for which, in test [1] (Well no.=636), the remaining activity at 3.75 µM worked out at 103%. Further, in test [2] (Well no.=636), the remaining activity at 1.25 µM was 103%.

In the case of `CCCCCCCC/C=C/CCCCCCCCC(=O)O` [10(E)-Nonadecenoic acid], the remaining activity at 3.75 µM in test [1] (Well no.=4546) is 102%. In test [2] (Well no.=4546), the remaining activity at 1.25 µM came to 98.5%.

In the case of `Cc1c(C)c2c(c(C)c1O)CCC(C)(CN1CCN(c3cc(N4CCCC4)nc(N4CCCC4)n3)CC1)O2` (centres unmarked) [U-83836 dihydrochloride], in test [1] (Well no.=1284), the remaining activity at 3.75 µM stood at 106%. In test [2] (Well no.=1284), the remaining activity at 1.25 µM was 105%.

For `CC(C)n1c(/C=C/[C@@H](O)C[C@@H](O)CC(=O)O)c(-c2ccc(F)cc2)c2ccccc21` [Fluvastatin sodium (Lescol)], in test [1] (Well no.=4998), the remaining activity at 3.75 µM was found to be 102%. In addition, the remaining activity at 1.25 µM in test [2] (Well no.=4998) was 106%.

Turning to `CN(C)CC/C=C1/c2ccccc2Sc2ccc(Cl)cc21` [Chlorprothixene hydrochloride], in test [1] (Well no.=45), the remaining activity at 3.75 µM was found to be 90.5%. In addition, the remaining activity at 1.25 µM in test [2] (Well no.=45) is 89.3%.

For `COc1cc2c(cc1O)CCN[C@@H]2C` [Salsoline], in test [1] (Well no.=3715), the remaining activity at 3.75 µM amounted to 102%. Moreover, the remaining activity at 1.25 µM in test [2] (Well no.=3715) was found to be 100%.

As for `CSC[C@H]1O[C@@H](n2cnc3c(N)ncnc32)[C@H](O)[C@@H]1O` [5'-Methylthioadenosine], the remaining activity at 3.75 µM was found to be 103% in test [1] (Well no.=6295) and 106% in test [1] (Well no.=7812). For the same molecule, the results for the remaining activity at 1.25 µM in test [2] (Well no.=6295) and in test [2] (Well no.=7812) were 102% and 105%, respectively.

Regarding `O=S(=O)(c1cccc2c(I)cccc12)N1CCCNCC1` [ML-7, Hydrochloride], the remaining activity at 3.75 µM in test [1] (Well no.=2491) turned out to be 103%. For the same molecule, the remaining activity at 1.25 µM in test [2] (Well no.=2491) is 103%.

On to `Cc1ccccc1N=Nc1ccc(NC(=O)c2ccnn2C)c(C)c1` [CH-223191], for which the remaining activity at 3.75 µM amounted to 98.7% in test [1] (Well no.=5835) and 95.5% in test [1] (Well no.=7892). Also, the values for the remaining activity at 1.25 µM in test [2] (Well no.=5835) and in test [2] (Well no.=7892) were 97.1% and 99.1%, respectively.

For the molecule `O=c1cc(-c2ccc(O)c(O[C@@H]3O[C@H](CO)[C@@H](O)[C@H](O)[C@H]3O)c2)oc2cc(O[C@@H]3O[C@H](CO)[C@@H](O)[C@H](O)[C@H]3O)cc(O)c12` [Luteolin-3',7-diglucoside], in test [1] (Well no.=3309), the remaining activity at 3.75 µM came to 95.6%. Besides, the remaining activity at 1.25 µM in test [2] (Well no.=3309) turned out to be 97.1%.

For the molecule `COc1ccc2cccc(CCNC(C)=O)c2c1` [Agomelatine], the remaining activity at 3.75 µM in test [1] (Well no.=5143) came out at 100%; in test [1] (Well no.=7340), 102%. The results for the remaining activity at 1.25 µM in test [2] (Well no.=5143) and in test [2] (Well no.=7340) were 100% and 99.9%, respectively.

Regarding `O=C(Cc1ccc(Cl)c(Cl)c1)OCCN1CCCC1` [AC 915 oxalate], the remaining activity at 3.75 µM in test [1] (Well no.=61) was found to be 102%. In test [2] (Well no.=61), the remaining activity at 1.25 µM is 104%.

For `CC(C)[C@H](O)C(=O)N[C@@H](C)C(=O)N[C@@H]1C(=O)N(C)CCc2ccccc21` [Semagacestat (LY450139)], the remaining activity at 3.75 µM in test [1] (Well no.=4614) was determined as 101%. For the same molecule, the remaining activity at 1.25 µM in test [2] (Well no.=4614) worked out at 102%.

As to `COc1cc(/C=C/C(=O)NCCn2c(C)cc3ccccc32)cc(OC)c1OC` [(E)-N-(2-(2-methyl-1H-indol-1-yl)ethyl)-3-(3,4,5-trimethoxyphenyl)acrylamide], the remaining activity at 3.75 µM in test [1] (Well no.=5914) was 99.4%. Moreover, the remaining activity at 1.25 µM in test [2] (Well no.=5914) came to 103%.

On to `COC(=O)[C@@H]1[C@H]2C[C@H]3c4[nH]c5ccccc5c4CCN3C[C@@H]2CC[C@@H]1O`, for which the remaining activity at 3.75 µM is 103% in test [1] (Well no.=1699) and 87.3% in test [1] (Well no.=3378). For the same molecule, the remaining activity at 1.25 µM in test [2] (Well no.=3378) turned out to be 86.8%.

As for `C[C@H](CSC(=O)c1ccccc1)C(=O)N1C[C@@H](Sc2ccccc2)C[C@H]1C(=O)O` [Zofenopril calcium], the remaining activity at 3.75 µM in test [1] (Well no.=5564) was 103%. In addition, the remaining activity at 1.25 µM in test [2] (Well no.=5564) worked out at 102%.

For `CN(C)CC(=O)Nc1ccc2[nH]c(=O)c3ccccc3c2c1` [PJ-34], the remaining activity at 3.75 µM in test [1] (Well no.=906) came out at 95.6%. Further, in test [2] (Well no.=906), the remaining activity at 1.25 µM was 99.3%.

For the molecule `c1ccc2c(CC3=NCCN3)cccc2c1` [Naphazoline], the remaining activity at 3.75 µM in test [1] (Well no.=2007) came out at 103%. Further, in test [2] (Well no.=2007), the remaining activity at 1.25 µM turned out to be 105%.
